Entries after “also recorded” stand apart in the source; their conditions may differ.
How the values were obtained:
[1] = Human whole-body PET/CT biodistribution of PET reporter probes; type: in vivo; conditions: for accumulation in myocardium / heart and liver: healthy volunteers; for intestinal / GI tract activity compared with 18F-FHBG / tracer background within abdomen and pelvis: human; for tracer background within abdomen and pelvis: whole-body PET/CT
Text: All studies involving human volunteers were approved. A healthy person and a healthy volunteer were recruited for the L-^18F-FMAU biodistribution study. Each volunteer received a bolus intravenous injection of ˜56 MBq (1.5 mCi) sterile L-^18F-FMAU and had four consecutive whole-body (starting from just above the head to above the knees, 6 bed positions, 5-min scan at each bed position) PET scans (Biograph 64, Siemens), with the first scan starting shortly after intravenous injection of L-^18F-FMAU. A low dose CT scan was also obtained for attenuation correction. Volunteers urinated after all scans had been performed. The region of interest analysis was performed to measure mean standard uptake values of L-^18F-FMAU in major organs/tissues. To illustrate the biodistribution of ^18F-FHBG, unpublished scan from a previous study (see, e.g. Yaghoubi, S. S., et al. (2009) Nat. Clin. Pract. Oncol. 6, 53-58) was used.

[2] = system: TK2-N93D-expressing L1210 cells; assay: L-18F-FMAU uptake assay, transduced L1210 cells (TK2-N93D); type: cell-based, murine
Text: To overcome the negative feedback limitation of TK2, a point mutation-N93D, was engineered. The work done by Piskur and colleagues on the structurally related Drosophila melanogaster deoxyribonucleoside kinase (see, e.g. Welin, M., et al. FEBS J 272:3733-3742, 2005) led one to predict that the N93D mutation would reduce the feedback inhibition of TK2 by dTTP. This prediction was confirmed by a comparison between the wild type (WT) and the TK2-N93D mutant in a kinase assay in which increasing concentrations of dTTP were added to inhibit TK2 enzymatic activity (FIG. 8B). We then determined whether the enhanced resistance to feedback inhibition translates into improved TK2-N93D catalytic activity towards the L-[^18F]FMAU substrate. The murine leukemic cell line L1210 was engineered to express the WT and mutated PRG. PRG-expressing L1210 cell lines were sorted to similar levels of gene expression, using enhanced yellow fluorescent protein (eYFP) as a co-linked fluorescent marker. […] It was also examined whether the expression of TK2-N93D had detrimental effects on cellular physiology (criterion 4 for PRGs). […] In contrast, sr39tk overexpression induced a 4-fold increase in dTTP pools (FIG. 9C). […] These findings provide evidence that the utility of sr39tk is limited not only by its immunogenicity but also by its effects on normal cellular physiology.
The L1210 cell line (see, e.g. Jordheim, L. P., et al. (2004) Clin. Cancer Res. 10, 5614-5621) was a gift. Cells were cultured at 5% v/v CO2 and 37° C. in RPMI supplemented with 5% v/v FCS. […]
L1210 cells transduced with the indicated PET reporter genes (L1210-PRG) were seeded at a density of 500,000 cells/well in 24-well plates. […] Radioactivity was measured using a gamma counter.

[3] = system: TK2-L109F-expressing L1210 cells; assay: L-18F-FMAU uptake assay, transduced L1210 cells (TK2-L109F); type: cell-based, murine; conditions: in the presence of 5 μM D-dT
Experimental: (§1) The L1210 cell line (see, e.g. Jordheim, L. P., et al. (2004) Clin. Cancer Res. 10, 5614-5621) was a gift. Cells were cultured at 5% v/v CO2 and 37° C. in RPMI supplemented with 5% v/v FCS. Murine stem cell virus (pMSCV)-based helper-free retroviruses encoding the TK2 mutants (or sr39tk), an internal ribosomal entry site, and the yellow fluorescent protein (YFP) were produced by transient co-transfection of the amphotrophic retrovirus packaging cell line Phoenix (American Type Culture Collection, SD 3443) (see, e.g. Hawley, R. G., et al. (1994) Gene. Ther. 1, 136-138). L1210 cells underwent spinfection with the pMSCV-TK2 mutants-internal ribosomal entry site-YFP retrovirus with 2 μg/ml Polybrene (1000×g, 120 min, 37° C.). L1210 cells expressing various PRGs, (L1210-PRG) were FACS-sorted to ensure that each population had equivalent levels of PRG expression.
(§2) L1210 cells transduced with the indicated PET reporter genes (L1210-PRG) were seeded at a density of 500,000 cells/well in 24-well plates. 5 μCi of L-^18F-FMAU were added to the L1210-PRG cells simultaneously with the indicated amounts of D-thymidine (D-dT) at a final volume of 1 ml/well. After 1 h at 37° C., cells were harvested and washed four times with ice-cold PBS. Radioactivity was measured using a gamma counter.

[4] = system: TK2-N93D/L109F-expressing L1210 cells; assay: L-18F-FMAU uptake assay, transduced L1210 cells (TK2-N93D/L109F); type: cell-based, murine
Experimental: as §1, §2

[5] = system: L1210 tumors expressing TK2-N93D/L109F; assay: microPET/CT of SCID mice bearing L1210-PRG tumors (TK2-N93D/L109F); type: in vivo
Experimental: Animal studies were approved and carried out according to specific guidelines. C57/BL6 mice were injected with the indicated probe and underwent micro-PET/CT analyses at 1- and 3-h post probe injection (Inveon, Siemens Medical Solutions USA Inc.; microCAT; Imtek Inc.). For tumor imaging studies, SCID mice were injected subcutaneously on day −7 in the right and left flanks with 1×10^6 L1210-PRG-expressing cells in 50% v/v phosphate-buffered saline and 50% v/v Matrigel™ (BD Biosciences). For imaging experiments, mice were kept warm and under gas anesthesia (2% v/v isoflurane) and were injected intravenously with 200 μCi of ^18F-labeled probes. A 3-h interval was allowed between probe administration and microPET/CT scanning Static microPET images were acquired for 600 s. Image data were evaluated in three-dimensional histograms and reconstructed with a zoom factor of 2.1 using three-dimensional ordered set expectation maximization (OSEM) with 2 iterations followed by MAP (maximum a posteriori) reconstruction with 18 iterations (beta=0.1). Images were analyzed using OsiriX Imaging Software Version 3.8.
Mice implanted with L1210 cells expressing TK2-based PRGs were scanned by microPET/CT using L-^18F-FMAU (FIG. 30A). For comparison, mice implanted with L1210 cells expressing HSV1-sr39tk were scanned by microPET/CT using ^18F-FHBG (FIG. 30B).

Baf-3 cells = assay: Test of mutant htk2 reporter genes in Baf-3 cells; type: cell-based
Text: The sensitivity of the described mutant htk2 imaging reporter genes can be evaluated through cell culture assays and PET imaging in mouse tumor models. […] Further tests regarding the effect of expressing these reporter genes on various cells can be used to determine other potential targets. […] Several enhanced htk2 mutant reporter genes have been designed and tested. Though the examples herein describe different probes and investigate the L probes mainly in mice, other mammals and in particular, humans are also within the scope of the invention. Silico models can be used to derive additional enhanced mutants from human htk2.

liver activity compared with 18F-FHBG ([1]; at 2 h): more intense activity
accumulation in myocardium / heart and liver ([1]; listed as L-[^18F]FMAU): accumulates in these tissues
intestinal / GI tract activity compared with 18F-FHBG [1]: lower than that of ^18F-FHBG
intestinal / GI tract activity compared with 18F-FHBG ([1]; listed as 18F-L-FMAU): lower intestinal background
tracer background within abdomen and pelvis ([1]; listed as L-[^18F]-FMAU): very low background in abdominal cavity
tracer background within abdomen and pelvis ([1]; listed as L-[^18F]FMAU): very low tracer background
Structure (SMILES): Cc1cn([C@H]2O[C@@H](CO)[C@H](O)[C@H]2[18F])c(=O)[nH]c1=O [L-^18F-FMAU, 2′-deoxy-2′-^18F-5-methyl-1-β-L-arabinofuranosyluracil]
tissues with relatively high signals ([1]; 2 h post-administration): relatively high signals were observed in liver, kidneys, gall bladder, bladder, and the GI tract
uptake pattern in healthy volunteer ([1]; first in human study, FIG. 20): mainly in its clearance routes, liver and bladder, with relatively low accumulation in intestines and some accumulation in the heart
accumulation in myocardium / heart and liver [1]: accumulation was also observed in the myocardium; also recorded: accumulates in the myocardium and liver
increase in L-18F-FMAU uptake relative to cells expressing WT TK2 ([2]; 1 h uptake, FIG. 27C): 1.5 fold
L-[18F]FMAU accumulation compared to WT TK2 transduced cells ([2]; FIG. 8C): increased accumulation; also recorded: increased uptake
decrease of L-18F-FMAU uptake ([2]; in the presence of 5 μM D-dT): 75%
L-18F-FMAU uptake as percentage of the corresponding uptake for TK2-N93D/L109F [3]: 31%
decrease of L-18F-FMAU uptake [3]: 37%
in vitro uptake of 18F-L-FMAU compared to TK2-N0 ([4]; TK2-N5 (TK2-N93D/L109F)): two-fold increase
inhibition of uptake by thymidine compared to TK2-N0 ([4]; TK2-N5 (TK2-N93D/L109F)): less resistance to inhibition by thymidine
L-18F-FMAU uptake, higher than that of TK2-L109F cells ([4]; absence of D-dT): ~4 times
L-18F-FMAU uptake, higher than that of TK2-N93D cells ([4]; absence of D-dT): 1.5 times
decrease of L-18F-FMAU uptake ([4]; in the presence of 5 μM D-dT): 47%
probe uptake in L1210 tumors ([5]; L-18F-FMAU, 3 h post-injection): 19.9±1.5 % injected dose/g
L-18F-FMAU uptake, higher than that of TK2-N93D-expressing cells ([5]; in vivo, FIG. 30C): 2.6 fold
test of reporter system with probe (Baf-3 cells): successfully tested
